Experimental data as given in the supplement of paper PMC11061612.

Tests used:
Paclitaxel = compound: CC(=O)O[C@H]1C(=O)[C@@]2(C)[C@H]([C@H](OC(=O)c3ccccc3)[C@]3(O)C[C@H](OC(=O)[C@H](O)[C@@H](NC(=O)c4ccccc4)c4ccccc4)C(C)=C1C3(C)C)[C@]1(OC(C)=O)CO[C@@H]1C[C@@H]2O [Paclitaxel]; settings: max 3 µM
Summary of the method: (§1)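 Following 24 hours at 37°C and 5% CO2, cancer cell lines in 1536-well plates with 7.5 μl DMEM/F12 or RPMI and 10% FBS were dosed for 72 hours, final DMSO typically being 0.2%. CellTiter-Glo 2.0 luminescence, scaled between blank-well and DMSO-well means, gave the viability readout. Dose responses were fitted to a two-parameter logistic curve with a non-linear mixed effects model, and the single-agent IC50 was derived from this fit.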

Crizotinib = compound: C[C@@H](Oc1cc(-c2cnn(C3CCNCC3)c2)cnc1N)c1c(Cl)ccc(F)c1Cl [Crizotinib]; settings: max 10 µM
Summary of the method: as §1

AZD1390 = compound: CC(C)n1c(=O)n(C)c2cnc3cc(F)c(-c4ccc(OCCCN5CCCCC5)nc4)cc3c21 [AZD1390]; settings: max 0.3 µM
Summary of the method: as §1

AZD2811 = compound: CCN(CCO)CCCOc1ccc2c(Nc3cc(CC(=O)Nc4cccc(F)c4)[nH]n3)ncnc2c1 [AZD2811]; settings: max 1 µM
Summary of the method: as §1

AZD0156 = compound: CN(C)CCCOc1ccc(-c2ccc3ncc4c(c3c2)n(C2CCOCC2)c(=O)n4C)cn1 [AZD0156]; settings: max 3 µM
Summary of the method: as §1

Selumetinib = compound: Cn1cnc2c(F)c(Nc3ccc(Br)cc3Cl)c(C(=O)NOCCO)cc21 [Selumetinib]; settings: max 10 µM
Summary of the method: as §1

Prexasertib = compound: COc1cccc(OCCCN)c1-c1cc(Nc2cnc(C#N)cn2)n[nH]1 [Prexasertib]; settings: max 1 µM
Summary of the method: as §1

Taselisib = compound: Cc1nc(-c2cn3c(n2)-c2ccc(-c4cnn(C(C)(C)C(N)=O)c4)cc2OCC3)n(C(C)C)n1 [Taselisib]; settings: max 10 µM
Summary of the method: as §1

Venetoclax = compound: CC1(C)CCC(CN2CCN(c3ccc(C(=O)NS(=O)(=O)c4ccc(NCC5CCOCC5)c([N+](=O)[O-])c4)c(Oc4cnc5[nH]ccc5c4)c3)CC2)=C(c2ccc(Cl)cc2)C1 [Venetoclax]; settings: max 1 µM
Summary of the method: as §1

AZD4320 = compound: CN(CC[C@H](CSC1=CC=CC=C1)NC2=C(C=C(C=C2)S(=O)(=O)NC(=O)C3=CC=C(C=C3)N4CCC(CC4)[C@H](C5=CC=CC=C5C6=CC=C(C=C6)Cl)O)S(=O)(=O)C(F)(F)F)CCO [AZD4320]; settings: max 1 µM
Summary of the method: as §1

MK-2206 = compound: NC1(c2ccc(-c3nc4ccn5c(=O)[nH]nc5c4cc3-c3ccccc3)cc2)CCC1 [MK-2206]; settings: max 10 µM
Summary of the method: as §1

Savolitinib = compound: C[C@@H](c1ccc2nccn2c1)n1nnc2ncc(-c3cnn(C)c3)nc21 [Savolitinib]; settings: max 1 µM
Summary of the method: as §1

SG3199 = compound: CC1=CN2[C@@H](C1)C=NC3=CC(=C(C=C3C2=O)OC)OCCCCCOC4=C(C=C5C(=C4)N=C[C@@H]6CC(=CN6C5=O)C)OC [SG3199]; settings: max 0.001 µM
Summary of the method: as §1

AZD8186 = compound: C[C@@H](Nc1cc(F)cc(F)c1)c1cc(C(=O)N(C)C)cc2c(=O)cc(N3CCOCC3)oc12 [AZD8186]; settings: max 10 µM
Summary of the method: as §1

AZD5153 = compound: COc1nnc2ccc(N3CCC(c4ccc(OCCN5CCN(C)C(=O)[C@H]5C)cc4)CC3)nn12 [AZD5153]; settings: max 1 µM
Summary of the method: as §1

AZD1775 = compound: C=CCn1c(=O)c2cnc(Nc3ccc(N4CCN(C)CC4)cc3)nc2n1-c1cccc(C(C)(C)O)n1 [AZD1775]; settings: max 3 µM
Summary of the method: as §1

Lapatinib = compound: CS(=O)(=O)CCNCc1ccc(-c2ccc3ncnc(Nc4ccc(OCc5cccc(F)c5)c(Cl)c4)c3c2)o1 [Lapatinib]; settings: max 10 µM
Summary of the method: as §1

Etoposide = compound: COc1cc([C@@H]2c3cc4c(cc3[C@@H](O[C@@H]3O[C@@H]5CO[C@@H](C)O[C@H]5[C@H](O)[C@H]3O)[C@H]3COC(=O)[C@H]23)OCO4)cc(OC)c1O [Etoposide]; settings: max 10 µM
Summary of the method: as §1

[1] = compound: O=C(Nc1ccc2[nH]nc(-c3ccncc3)c2c1)[C@@H]1CCN(CC(=O)N2CCN(c3ccc(-c4ncccn4)cc3)CC2)C1; settings: max 5 µM
Summary of the method: as §1

SN-38 = compound: CCc1c2c(nc3ccc(O)cc13)-c1cc3c(c(=O)n1C2)COC(=O)[C@]3(O)CC [SN-38]; settings: max 0.3 µM
Summary of the method: as §1

Carboplatin = compound: C1CC(C1)(C(=O)[O-])C(=O)[O-].N.N.[Pt+2] [Carboplatin]; settings: max 10 µM
Summary of the method: as §1

Trametinib = compound: CC(=O)Nc1cccc(-n2c(=O)n(C3CC3)c(=O)c3c(Nc4ccc(I)cc4F)n(C)c(=O)c(C)c32)c1 [Trametinib]; settings: max 1 µM
Summary of the method: as §1

Doxorubicin = compound: COc1cccc2c1C(=O)c1c(O)c3c(c(O)c1C2=O)C[C@@](O)(C(=O)CO)C[C@@H]3O[C@H]1C[C@H](N)[C@H](O)[C@H](C)O1 [Doxorubicin]; settings: max 1 µM
Summary of the method: as §1

Gemcitabine = compound: Nc1ccn([C@@H]2O[C@H](CO)[C@@H](O)C2(F)F)c(=O)n1 [Gemcitabine]; settings: max 0.3 µM
Summary of the method: as §1

AZD5363 = compound: C1CN(CCC1(C(=O)N[C@@H](CCO)C2=CC=C(C=C2)Cl)N)C3=NC=NC4=C3C=CN4 [AZD5363]; settings: max 10 µM
Summary of the method: as §1

5-Fluorouracil = compound: O=c1[nH]cc(F)c(=O)[nH]1 [5-Fluorouracil]; settings: max 20 µM
Summary of the method: as §1

Dasatinib = compound: CC1=C(C(=CC=C1)Cl)NC(=O)C2=CN=C(S2)NC3=CC(=NC(=N3)C)N4CCN(CC4)CCO [Dasatinib]; settings: max 2 µM
Summary of the method: as §1

SRA737 = compound: N#Cc1cnc(Nc2cc(NC[C@H]3CNCCO3)c(C(F)(F)F)cn2)cn1 [SRA737]; settings: max 10 µM
Summary of the method: as §1

Palbociclib = compound: CC(=O)c1c(C)c2cnc(Nc3ccc(N4CCNCC4)cn3)nc2n(C2CCCC2)c1=O [Palbociclib]; settings: max 10 µM
Summary of the method: as §1

Gefitinib = compound: COc1cc2ncnc(Nc3ccc(F)c(Cl)c3)c2cc1OCCCN1CCOCC1 [Gefitinib]; settings: max 10 µM
Summary of the method: as §1

AZD5991 = compound: Cc1c2c(nn1C)CSCc1cc(n(C)n1)CSc1cc(c3ccccc3c1)OCCCc1c(C(=O)O)n(C)c3c-2c(Cl)ccc13 [AZD5991]; settings: max 1 µM
Summary of the method: as §1

Olaparib = compound: O=C(c1cc(Cc2n[nH]c(=O)c3ccccc23)ccc1F)N1CCN(C(=O)C2CC2)CC1 [Olaparib]; settings: max 10 µM
Summary of the method: as §1

Alisertib = compound: COc1cc(Nc2ncc3c(n2)-c2ccc(Cl)cc2C(c2c(F)cccc2OC)=NC3)ccc1C(=O)O [Alisertib]; settings: max 10 µM
Summary of the method: as §1

AZD6738 = compound: C[C@@H]1COCCN1C2=NC(=NC(=C2)C3(CC3)[S@](=N)(=O)C)C4=C5C=CNC5=NC=C4 [AZD6738]; settings: max 10 µM
Summary of the method: as §1

AZD7648 = compound: Cc1cc2ncnn2cc1Nc1ncc2c(n1)n(C1CCOCC1)c(=O)n2C [AZD7648]; settings: max 10 µM
Summary of the method: as §1

## NTERA-2-cl-D1 (Other Solid Carcinomas)
Paclitaxel
  IC50, cell viability 72 h: 415 nM
Crizotinib
  IC50, cell viability 72 h: > 10 µM
AZD1390
  IC50, cell viability 72 h: > 300 nM
AZD2811
  IC50, cell viability 72 h: > 1000 nM
AZD0156
  IC50, cell viability 72 h: > 3000 nM
Selumetinib
  IC50, cell viability 72 h: > 10 µM
Prexasertib
  IC50, cell viability 72 h: > 1000 nM
Taselisib
  IC50, cell viability 72 h: > 10 µM
Venetoclax
  IC50, cell viability 72 h: > 1000 nM
AZD4320
  IC50, cell viability 72 h: > 1000 nM
MK-2206
  IC50, cell viability 72 h: > 10 µM
Savolitinib
  IC50, cell viability 72 h: > 1000 nM
SG3199
  IC50, cell viability 72 h: > 1 nM
AZD8186
  IC50, cell viability 72 h: > 10 µM
AZD5153
  IC50, cell viability 72 h: 532 nM
AZD1775
  IC50, cell viability 72 h: > 3000 nM
Lapatinib
  IC50, cell viability 72 h: > 10 µM
Etoposide
  IC50, cell viability 72 h: > 10 µM
[1]
  IC50, cell viability 72 h: > 5 µM
SN-38
  IC50, cell viability 72 h: 5.92 nM
Carboplatin
  IC50, cell viability 72 h: > 10 µM
Trametinib
  IC50, cell viability 72 h: > 1000 nM
Doxorubicin
  IC50, cell viability 72 h: 23.6 nM
Gemcitabine
  IC50, cell viability 72 h: > 300 nM
AZD5363
  IC50, cell viability 72 h: > 10 µM
5-Fluorouracil
  IC50, cell viability 72 h: > 20 µM
Dasatinib
  IC50, cell viability 72 h: > 2000 nM
SRA737
  IC50, cell viability 72 h: > 10 µM
Palbociclib
  IC50, cell viability 72 h: > 10 µM
Gefitinib
  IC50, cell viability 72 h: > 10 µM
AZD5991
  IC50, cell viability 72 h: > 1000 nM
Olaparib
  IC50, cell viability 72 h: > 10 µM
Alisertib
  IC50, cell viability 72 h: 453 nM
AZD6738
  IC50, cell viability 72 h: > 10 µM
AZD7648
  IC50, cell viability 72 h: > 10 µM
